Measurements reported in patent US7163923B2, “Peptide deformylase activated prodrugs” (Celmed Oncology (USA), Inc., priority 2001, dated 2007).
Converted amounts (≈) assume the structure as drawn. Where two headings read alike, the source gives them in different places.

Legend:
Assay in all cases: MIC susceptibility testing (modified NCCLS, 384-well)
Format in all cases: cell-based
E. faecalis = conditions: Enterococcus faecalis, ATCC700802, E. faecalis ATCC 700802, Exp. #2, Table 4
Description: The NCCLS (National Committee for Clinical Laboratory Standards), method to determine MIC's of antimicrobial compounds is modified for high-throughput screening. All stocks of tested compounds are prepared in either water or in DMSO depending on solubility. At the highest concentration, DMSO content should not exceed 0.5%. Briefly, twenty 2-fold serial dilutions of test compounds from the highest concentration are made in a 384-well microtiter plate. […] Bacterial growth is determined by the increase of optical density at 600 nm using a microplate reader (Tecan SpectraFluor Plus).

S. aureus = conditions: Staphylococcus aureus, read-out: MIC
Description: (§1) The NCCLS (National Committee for Clinical Laboratory Standards), method to determine MIC's of antimicrobial compounds is modified for high-throughput screening. All stocks of tested compounds are prepared in either water or in DMSO depending on solubility. At the highest concentration, DMSO content should not exceed 0.5%. Briefly, twenty 2-fold serial dilutions of test compounds from the highest concentration are made in a 384-well microtiter plate. Each well is inoculated with testing bacteria in broth to a final concentration of approximately 1–1.5×10^6 cells/ml. Bacterial growth is determined by the increase of optical density at 600 nm using a microplate reader (Tecan SpectraFluor Plus). The MIC is defined as the lowest concentration at which bacterial growth (equivalent to visible growth) was inhibited after 16 to 18 hours of incubation at the appropriate temperature required for the bacteria growth.
Using the assay provided above, the potency of NB2046 was compared to triclosan.

E. coli = tested on: E. coli
Description: as §1
E. coli/TEM—E. coli expressing TEM-1 beta-lactamase; MRSA—Methicillin Resistant S. Aureus; MSSA—Methicillin Sensitive S. Aureus

CSCCC(NC=O)C(=O)NC(CC(C)C)C(=O)Oc1cc(Cl)ccc1Oc1ccc(Cl)cc1Cl (stereo not shown) [NB2046, 2-(2-formylamino-4-methylsulfanyl-butyrylamino)-4-methyl-pentanoic acid 5-chloro-2-(2,4-dichloro-phenoxy)-phenyl ester]
MIC (E. faecalis): 32000 ng/mL (≈ 56900 nM)
MIC (S. aureus; ATCC11632, S. aureus ATCC 11632, Exp. #1, Table 3): ≤ 125 ng/mL
MIC (S. aureus; ATCC11632, S. aureus ATCC 11632, Exp. #2, Table 3): ≤ 125 ng/mL
MIC (S. aureus; ATCC 11632 / MSSA, MSSA ATCC 11632, Exp. #1, Table 4): 32000 ng/mL (≈ 56900 nM)
MIC (S. aureus; ATCC 11632 / MSSA, MSSA ATCC 11632, Exp. #2, Table 4): 16000 ng/mL (≈ 28500 nM)
MIC (S. aureus; ATCC 11632 / MSSA, MSSA ATCC 11632, Table 5): 0.977 ng/mL (≈ 1.74 nM)
MIC (S. aureus; ATCC13301, S. aureus ATCC 13301, Exp. #1, Table 3): ≤ 125 ng/mL
MIC (S. aureus; ATCC13301, S. aureus ATCC 13301, Exp. #2, Table 3): ≤ 125 ng/mL
MIC (S. aureus; ATCC 13301 / MSSA, MSSA ATCC 13301, Table 5): 0.015 ng/mL (≈ 0.0267 nM)
MIC (S. aureus; ATCC14154, S. aureus ATCC 14154, Exp. #1, Table 3): ≤ 125 ng/mL
MIC (S. aureus; ATCC14154, S. aureus ATCC 14154, Exp. #2, Table 3): ≤ 125 ng/mL
MIC (S. aureus; ATCC 14154 / MSSA, MSSA ATCC 14154, Table 5): 0.977 ng/mL (≈ 1.74 nM)
MIC (S. aureus; ATCC33591, S. aureus ATCC 33591, Exp. #1, Table 3): ≤ 125 ng/mL
MIC (S. aureus; ATCC33591, S. aureus ATCC 33591, Exp. #2, Table 3): ≤ 125 ng/mL
MIC (S. aureus; ATCC 33591 / MSSA, MSSA ATCC 33591, Table 5): 15.6 ng/mL (≈ 27.8 nM)
MIC (S. aureus; ATCC33592, S. aureus ATCC 33592, Exp. #1, Table 3): ≤ 125 ng/mL
MIC (S. aureus; ATCC33592, S. aureus ATCC 33592, Exp. #2, Table 3): ≤ 125 ng/mL
MIC (S. aureus; ATCC 33592 / MSSA, MSSA ATCC 33592, Table 5): 0.488 ng/mL (≈ 0.868 nM)
MIC (S. aureus; ATCC33593, S. aureus ATCC 33593, Exp. #1, Table 3): ≤ 125 ng/mL
MIC (S. aureus; ATCC33593, S. aureus ATCC 33593, Exp. #2, Table 3): ≤ 125 ng/mL
MIC (S. aureus; ATCC 33593 / MSSA, MSSA ATCC 33593, Table 5): 0.488 ng/mL (≈ 0.868 nM)
MIC (S. aureus; ATCC 33594 / MSSA, MSSA ATCC 33594, Exp. #1, Table 4): ≤ 125 ng/mL
MIC (S. aureus; ATCC 33594 / MSSA, MSSA ATCC 33594, Exp. #2, Table 4): ≤ 125 ng/mL
MIC (S. aureus; ATCC43300, S. aureus ATCC 43300, Exp. #1, Table 3): ≤ 125 ng/mL
MIC (S. aureus; ATCC43300, S. aureus ATCC 43300, Exp. #2, Table 3): ≤ 125 ng/mL
MIC (S. aureus; ATCC 43300 / MSSA, MSSA ATCC 43300, Table 5): 0.977 ng/mL (≈ 1.74 nM)
MIC (S. aureus; ATCC700260, S. aureus ATCC 700260, Exp. #1, Table 3): ≤ 125 ng/mL
MIC (S. aureus; ATCC700260, S. aureus ATCC 700260, Exp. #2, Table 3): ≤ 125 ng/mL
MIC (S. aureus; ATCC 700260 / MSSA, MSSA ATCC 700260, Exp. #1, Table 4): ≤ 125 ng/mL
MIC (S. aureus; ATCC 700260 / MSSA, MSSA ATCC 700260, Exp. #2, Table 4): 4000 ng/mL (≈ 7120 nM)
MIC (S. aureus; ATCC 700260 / MSSA, MSSA ATCC 700260, Table 5): 0.031 ng/mL (≈ 0.0552 nM)
MIC (S. aureus; ATCC700698, S. aureus ATCC 700698, Exp. #1, Table 3): ≤ 125 ng/mL
MIC (S. aureus; ATCC700698, S. aureus ATCC 700698, Exp. #2, Table 3): ≤ 125 ng/mL
MIC (S. aureus; ATCC 700698 / MSSA, MSSA ATCC 700698, Table 5): 3.91 ng/mL (≈ 6.95 nM)
MIC (S. aureus; ATCC700699, S. aureus ATCC 700699, Exp. #1, Table 3): 16000 ng/mL (≈ 28500 nM)
MIC (S. aureus; ATCC700699, S. aureus ATCC 700699, Exp. #2, Table 3): 8000 ng/mL (≈ 14200 nM)
MIC (S. aureus; ATCC 700699 / MRSA, MRSA ATCC 700699, Exp. #1, Table 4): 32000 ng/mL (≈ 56900 nM)
MIC (S. aureus; ATCC 700699 / MRSA, MRSA ATCC 700699, Exp. #2, Table 4): 32000 ng/mL (≈ 56900 nM)
MIC (S. aureus; ATCC 700699 / MSSA, MSSA ATCC 700699, Table 5): ≥ 4000 ng/mL
MIC (S. aureus; ATCC700787, S. aureus ATCC 700787, Exp. #1, Table 3): ≤ 125 ng/mL
MIC (S. aureus; ATCC700787, S. aureus ATCC 700787, Exp. #2, Table 3): ≤ 125 ng/mL
MIC (S. aureus; ATCC 700787 / MSSA, MSSA ATCC 700787, Table 5): 7.81 ng/mL (≈ 13.9 nM)
MIC (S. aureus; ATCC700788, S. aureus ATCC 700788, Exp. #1, Table 3): ≤ 125 ng/mL
MIC (S. aureus; ATCC700788, S. aureus ATCC 700788, Exp. #2, Table 3): ≤ 125 ng/mL
MIC (S. aureus; ATCC 700788 / MSSA, MSSA ATCC 700788, Table 5): 62.5 ng/mL (≈ 111 nM)
MIC (S. aureus; ATCC700789, S. aureus ATCC 700789, Exp. #1, Table 3): ≤ 125 ng/mL
MIC (S. aureus; ATCC700789, S. aureus ATCC 700789, Exp. #2, Table 3): ≤ 125 ng/mL
MIC (S. aureus; ATCC 700789 / MSSA, MSSA ATCC 700789, Table 5): 15.6 ng/mL (≈ 27.8 nM)
MIC (E. coli; E. coli, Exp. #2, Table 4): 16000 ng/mL (≈ 28500 nM)
MIC (E. coli; E. coli/Tem-1 (expressing TEM-1 beta-lactamase), Exp. #1, Table 4): 16000 ng/mL (≈ 28500 nM)
MIC (E. coli; E. coli/Tem-1 (expressing TEM-1 beta-lactamase), Exp. #2, Table 4): 16000 ng/mL (≈ 28500 nM)
MIC (E. coli; Escherichia coli, E. coli, Exp. #1, Table 4, read-out: MIC): 16000 ng/mL (≈ 28500 nM)
